PubChem BioAssay (NCI)
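Five concentrations, 48 hours, 96-well plates. TGI: concentration producing complete growth inhibition.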

How the values were obtained:
Experiment in all cases: NCI anticancer screen, dose series, 48 h
[1] = system: IGROV1 ovarian
[2] = system: NCI-H23 lung
[3] = system: RPMI-8226 leukemia
[4] = system: K-562 leukemia
[5] = system: DU-145 prostate
[6] = system: MDA-MB-231 breast
[7] = system: HS 578T breast
[8] = system: SK-OV-3 ovarian
[9] = system: RXF 393 renal
[10] = system: PC-3 prostate
[11] = system: HT29 colon
[12] = system: OVCAR-8 ovarian
[13] = system: LOX IMVI melanoma
[14] = system: NCI-H460 lung
[15] = system: SF-539 CNS
[16] = system: ACHN renal
[17] = system: SNB-19 CNS
[18] = system: SK-MEL-5 melanoma
[19] = system: KM12 colon
[20] = system: MCF7 breast
[21] = system: A498 renal
[22] = system: SK-MEL-28 melanoma
[23] = system: CAKI-1 renal
[24] = system: T-47D breast
[25] = system: NCI/ADR-RES ovarian
[26] = system: BT-549 breast
[27] = system: HOP-62 NSCLC
[28] = system: OVCAR-3 ovarian
[29] = system: HCT-116 colon
[30] = system: CCRF-CEM leukemia
[31] = system: SNB-75 CNS
[32] = system: M14 melanoma
[33] = system: 786-0 renal
[34] = system: MDA-N
[35] = system: SF-295 CNS
[36] = system: U251 CNS
[37] = system: OVCAR-4 ovarian
[38] = system: UO-31 renal
[39] = system: UACC-257 melanoma
[40] = system: NCI-H226 lung
[41] = system: HL-60(TB) leukemia
[42] = system: MDA-MB-435
[43] = system: MOLT-4 leukemia
[44] = system: SN12C renal
[45] = system: TK-10 renal
[46] = system: MALME-3M melanoma
[47] = system: SF-268 CNS
[48] = system: HOP-92 NSCLC
[49] = system: A549 NSCLC
[50] = system: SK-MEL-2 melanoma
[51] = system: COLO 205 colon
[52] = system: NCI-H522 lung
[53] = system: SW-620 colon
[54] = system: EKVX NSCLC
[55] = system: OVCAR-5 ovarian
[56] = system: SR leukemia
[57] = system: HCT-15 colon
[58] = system: UACC-62 melanoma
[59] = system: HCC-2998 colon

## Cn1c2c(c3c(=O)[nH]ncc31)CCc1ccccc1-2
[1]
  TGI: 60.2 µM
[2]
  TGI: 71.4 µM
[3]
  TGI: 67.4 µM
[4]
  TGI: > 100 µM
[5]
  TGI: > 100 µM
[6]
  TGI: 47.3 µM
[7]
  TGI: > 100 µM
[8]
  TGI: > 100 µM
[9]
  TGI: 39.6 µM
[10]
  TGI: > 100 µM
[11]
  TGI: > 100 µM
[12]
  TGI: > 100 µM
[13]
  TGI: 35 µM
[14]
  TGI: 33.6 µM
[15]
  TGI: > 100 µM
[16]
  TGI: 72.4 µM
[17]
  TGI: > 100 µM
[18]
  TGI: 35.1 µM
[19]
  TGI: 54.9 µM
[20]
  TGI: 79 µM
[21]
  TGI: 45.7 µM
[22]
  TGI: 70.8 µM
[23]
  TGI: > 100 µM
[24]
  TGI: > 100 µM
[25]
  TGI: 89 µM
[26]
  TGI: 78.2 µM
[27]
  TGI: > 100 µM
[28]
  TGI: 72.2 µM
[29]
  TGI: 64.2 µM
[30]
  TGI: 60.7 µM
[31]
  TGI: 87.8 µM
[32]
  TGI: 41.7 µM
[33]
  TGI: 73.4 µM
[34]
  TGI: 91 µM
[35]
  TGI: > 100 µM
[36]
  TGI: > 100 µM
[37]
  TGI: > 100 µM
[38]
  TGI: 59.1 µM
[39]
  TGI: 40.6 µM
[40]
  TGI: 94.4 µM
[41]
  TGI: 60.6 µM
[42]
  TGI: > 100 µM
[43]
  TGI: 75 µM
[44]
  TGI: > 100 µM
[45]
  TGI: 45.3 µM
[46]
  TGI: 88.5 µM
[47]
  TGI: > 100 µM
[48]
  TGI: > 100 µM
[49]
  TGI: > 100 µM
[50]
  TGI: 57.1 µM
[51]
  TGI: 81.1 µM
[52]
  TGI: > 100 µM
[53]
  TGI: > 100 µM
[54]
  TGI: > 100 µM
[55]
  TGI: > 100 µM
[56]
  TGI: 55.2 µM
[57]
  TGI: 67.3 µM

## N#CC(NC12CC3CC(CC(C3)C1)C2)c1ccccc1 (configuration not stated)
[1]
  TGI: > 100 µM
[2]
  TGI: > 100 µM
[3]
  TGI: > 100 µM
[4]
  TGI: > 100 µM
[5]
  TGI: > 100 µM
[6]
  TGI: > 100 µM
[58]
  TGI: > 100 µM
[7]
  TGI: > 100 µM
[8]
  TGI: > 100 µM
[9]
  TGI: > 100 µM
[10]
  TGI: > 100 µM
[11]
  TGI: > 100 µM
[12]
  TGI: > 100 µM
[13]
  TGI: > 100 µM
[14]
  TGI: > 100 µM
[15]
  TGI: > 100 µM
[16]
  TGI: > 100 µM
[17]
  TGI: > 100 µM
[18]
  TGI: > 100 µM
[19]
  TGI: > 100 µM
[20]
  TGI: > 100 µM
[22]
  TGI: > 100 µM
[23]
  TGI: > 100 µM
[24]
  TGI: > 100 µM
[25]
  TGI: > 100 µM
[26]
  TGI: > 100 µM
[27]
  TGI: > 100 µM
[28]
  TGI: > 100 µM
[29]
  TGI: > 100 µM
[30]
  TGI: > 100 µM
[31]
  TGI: > 100 µM
[32]
  TGI: > 100 µM
[33]
  TGI: > 100 µM
[34]
  TGI: > 100 µM
[35]
  TGI: > 100 µM
[36]
  TGI: > 100 µM
[37]
  TGI: > 100 µM
[38]
  TGI: > 100 µM
[39]
  TGI: > 100 µM
[40]
  TGI: > 100 µM
[59]
  TGI: > 100 µM
[41]
  TGI: > 100 µM
[42]
  TGI: > 100 µM
[43]
  TGI: > 100 µM
[44]
  TGI: > 100 µM
[45]
  TGI: > 100 µM
[46]
  TGI: > 100 µM
[47]
  TGI: > 100 µM
[48]
  TGI: > 100 µM
[49]
  TGI: > 100 µM
[50]
  TGI: > 100 µM
[51]
  TGI: > 100 µM
[52]
  TGI: > 100 µM
[53]
  TGI: > 100 µM
[54]
  TGI: > 100 µM
[55]
  TGI: > 100 µM
[56]
  TGI: > 100 µM
[57]
  TGI: > 100 µM

## NNC(=O)CC(=O)Nc1ccc(C(=O)O)cc1
[1]
  TGI: > 100 µM
[2]
  TGI: > 100 µM
[3]
  TGI: > 100 µM
[4]
  TGI: > 100 µM
[5]
  TGI: > 100 µM
[6]
  TGI: > 100 µM
[58]
  TGI: > 100 µM
[7]
  TGI: > 100 µM
[8]
  TGI: > 100 µM
[9]
  TGI: > 100 µM
[10]
  TGI: > 100 µM
[11]
  TGI: > 100 µM
[12]
  TGI: > 100 µM
[13]
  TGI: > 100 µM
[14]
  TGI: > 100 µM
[15]
  TGI: > 100 µM
[16]
  TGI: > 100 µM
[17]
  TGI: > 100 µM
[18]
  TGI: > 100 µM
[19]
  TGI: > 100 µM
[20]
  TGI: > 100 µM
[23]
  TGI: > 100 µM
[24]
  TGI: > 100 µM
[25]
  TGI: > 100 µM
[26]
  TGI: > 100 µM
[27]
  TGI: > 100 µM
[28]
  TGI: > 100 µM
[29]
  TGI: > 100 µM
[30]
  TGI: > 100 µM
[31]
  TGI: > 100 µM
[33]
  TGI: > 100 µM
[34]
  TGI: > 100 µM
[35]
  TGI: > 100 µM
[36]
  TGI: > 100 µM
[37]
  TGI: > 100 µM
[38]
  TGI: > 100 µM
[39]
  TGI: > 100 µM
[40]
  TGI: > 100 µM
[41]
  TGI: > 100 µM
[42]
  TGI: > 100 µM
[43]
  TGI: > 100 µM
[44]
  TGI: > 100 µM
[45]
  TGI: > 100 µM
[46]
  TGI: > 100 µM
[47]
  TGI: > 100 µM
[48]
  TGI: > 100 µM
[49]
  TGI: > 100 µM
[50]
  TGI: > 100 µM
[51]
  TGI: > 100 µM
[52]
  TGI: > 100 µM
[53]
  TGI: > 100 µM
[54]
  TGI: > 100 µM
[55]
  TGI: > 100 µM
[56]
  TGI: > 100 µM
[57]
  TGI: > 100 µM

## CC(=O)O[C@@]12[C@@H]3O[C@@]4(O)C[C@]5(C)[C@H]6C[C@@](C(C)C)(O[C@H]5c5ccoc5)O[C@H]1[C@]6(C4)O[C@]2(O)C(C)=CC3(C)C
[1]
  TGI: > 100 µM
[2]
  TGI: > 100 µM
[3]
  TGI: > 100 µM
[4]
  TGI: > 100 µM
[5]
  TGI: > 100 µM
[6]
  TGI: > 100 µM
[58]
  TGI: > 100 µM
[7]
  TGI: > 100 µM
[8]
  TGI: > 100 µM
[9]
  TGI: > 100 µM
[10]
  TGI: > 100 µM
[11]
  TGI: > 100 µM
[12]
  TGI: > 100 µM
[13]
  TGI: > 100 µM
[15]
  TGI: > 100 µM
[16]
  TGI: > 100 µM
[17]
  TGI: > 100 µM
[18]
  TGI: > 100 µM
[19]
  TGI: > 100 µM
[20]
  TGI: > 100 µM
[22]
  TGI: > 100 µM
[23]
  TGI: > 100 µM
[24]
  TGI: > 100 µM
[25]
  TGI: > 100 µM
[26]
  TGI: > 100 µM
[27]
  TGI: > 100 µM
[28]
  TGI: > 100 µM
[29]
  TGI: > 100 µM
[30]
  TGI: > 100 µM
[31]
  TGI: > 100 µM
[32]
  TGI: > 100 µM
[33]
  TGI: > 100 µM
[34]
  TGI: > 100 µM
[35]
  TGI: > 100 µM
[36]
  TGI: > 100 µM
[37]
  TGI: > 100 µM
[38]
  TGI: > 100 µM
[39]
  TGI: > 100 µM
[40]
  TGI: > 100 µM
[59]
  TGI: > 100 µM
[41]
  TGI: > 100 µM
[42]
  TGI: > 100 µM
[43]
  TGI: > 100 µM
[44]
  TGI: > 100 µM
[45]
  TGI: > 100 µM
[46]
  TGI: > 100 µM
[47]
  TGI: > 100 µM
[48]
  TGI: > 100 µM
[49]
  TGI: > 100 µM
[50]
  TGI: > 100 µM
[51]
  TGI: > 100 µM
[52]
  TGI: > 100 µM
[53]
  TGI: > 100 µM
[54]
  TGI: > 100 µM
[55]
  TGI: > 100 µM
[56]
  TGI: > 100 µM
[57]
  TGI: > 100 µM
